Reference: PMC6109843, “Novel Quinazolinone Inhibitors of ALK2 Flip between Alternate Binding Modes: Structure–Activity Relationship, Structural Characterization, Kinase Profiling, and Cellular Proof of Concept” (Journal of Medicinal Chemistry, 2018)

Legend:
Assay in all cases: DiscoverX scanEDGE kinase panel
Assay type in all cases: binding
Conditions in all cases: Cmpd Conc 1000 nM, read-out: % Ctrl
[1] = target: T1, SNARK (Homo sapiens, UniProt Q9H093)
T1 construct: purchased DiscoverX (DiscoveRx) KINOMEscan scanEDGE / KdELECT
From the text: (§1) We hypothesized that inhibitors of the normal and flipped modes would display distinct selectivity profiles.
(§2) 1. 16 and 21 kinome selectivity data
(§3) (P – phosphorylated; nP – nonphosphorylated; % Ctrl values show the % of DNAEtagged
(§4) kinase which was not displaced from a solid supported ligand by a test compound relative to
(§5) untreated control, quantified by qPCR).
(§6) Please note: ALKs 1, 2, 3, 4, 5 and 6 are listed by their gene symbols: ACVRL1 (ALK1), ACVR1
(§7) (ALK2), BMPR1A (ALK3), ACVR1B (ALK4), TGFBR1 (ALK5) and BMPR1B (ALK6)
(§8) Cmpd DiscoverX Gene Symbol Entrez Gene Symbol % Ctrl Cmpd Conc (nM)

[2] = target: T2, PIK3C2B (Homo sapiens, UniProt O00750)
T2 construct: purchased DiscoverX (DiscoveRx) KINOMEscan scanEDGE / KdELECT
T2 sequence (O00750 whole entry): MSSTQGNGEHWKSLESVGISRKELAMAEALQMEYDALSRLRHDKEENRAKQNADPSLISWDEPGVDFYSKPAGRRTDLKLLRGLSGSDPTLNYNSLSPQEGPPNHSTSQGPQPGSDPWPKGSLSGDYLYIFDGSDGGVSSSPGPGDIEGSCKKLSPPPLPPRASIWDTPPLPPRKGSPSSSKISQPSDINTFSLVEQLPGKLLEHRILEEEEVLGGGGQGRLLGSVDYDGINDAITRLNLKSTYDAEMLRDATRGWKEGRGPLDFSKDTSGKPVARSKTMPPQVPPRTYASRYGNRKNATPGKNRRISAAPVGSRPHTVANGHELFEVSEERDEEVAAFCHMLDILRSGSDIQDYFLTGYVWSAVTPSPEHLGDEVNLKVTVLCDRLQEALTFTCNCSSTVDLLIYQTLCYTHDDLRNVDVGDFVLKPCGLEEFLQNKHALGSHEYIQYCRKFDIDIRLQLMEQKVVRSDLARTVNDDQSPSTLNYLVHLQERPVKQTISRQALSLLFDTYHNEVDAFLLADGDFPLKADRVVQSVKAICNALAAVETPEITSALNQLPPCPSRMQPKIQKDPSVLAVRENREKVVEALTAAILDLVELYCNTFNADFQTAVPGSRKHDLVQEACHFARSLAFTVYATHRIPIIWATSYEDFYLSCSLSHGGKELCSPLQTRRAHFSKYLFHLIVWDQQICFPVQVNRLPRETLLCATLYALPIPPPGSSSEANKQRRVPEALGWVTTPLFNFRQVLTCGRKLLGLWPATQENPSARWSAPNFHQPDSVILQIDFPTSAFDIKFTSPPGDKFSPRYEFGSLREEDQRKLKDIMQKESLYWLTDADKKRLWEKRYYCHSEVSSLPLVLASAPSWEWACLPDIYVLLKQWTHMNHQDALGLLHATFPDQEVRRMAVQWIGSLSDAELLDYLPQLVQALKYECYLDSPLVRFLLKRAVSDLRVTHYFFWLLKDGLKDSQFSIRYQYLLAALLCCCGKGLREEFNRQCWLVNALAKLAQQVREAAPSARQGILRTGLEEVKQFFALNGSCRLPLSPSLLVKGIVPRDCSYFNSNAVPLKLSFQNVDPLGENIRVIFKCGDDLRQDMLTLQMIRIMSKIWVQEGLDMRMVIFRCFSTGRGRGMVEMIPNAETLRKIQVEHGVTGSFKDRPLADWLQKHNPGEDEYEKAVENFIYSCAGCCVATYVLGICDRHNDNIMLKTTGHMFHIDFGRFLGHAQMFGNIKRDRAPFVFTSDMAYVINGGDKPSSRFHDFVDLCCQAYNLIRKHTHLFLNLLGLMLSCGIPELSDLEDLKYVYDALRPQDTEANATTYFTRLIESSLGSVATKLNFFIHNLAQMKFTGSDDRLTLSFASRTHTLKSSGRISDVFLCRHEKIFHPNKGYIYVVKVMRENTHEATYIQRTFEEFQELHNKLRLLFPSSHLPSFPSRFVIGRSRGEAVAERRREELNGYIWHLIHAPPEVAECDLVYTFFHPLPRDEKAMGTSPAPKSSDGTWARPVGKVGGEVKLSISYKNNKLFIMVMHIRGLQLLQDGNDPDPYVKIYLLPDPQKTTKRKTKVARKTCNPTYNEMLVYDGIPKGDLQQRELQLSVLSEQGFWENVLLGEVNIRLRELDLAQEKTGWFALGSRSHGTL
From the text: as §1, §2, §3, §4, §5, §6, §7, §8

[3] = target: T3, CSF1R (Homo sapiens, UniProt P07333)
T3 construct: purchased DiscoverX (DiscoveRx) KINOMEscan scanEDGE / KdELECT
From the text: as §1, §2, §3, §4, §5, §6, §7, §8

[4] = target: T4, RIOK2 (Homo sapiens, UniProt Q9BVS4)
T4 construct: purchased DiscoverX (DiscoveRx) KINOMEscan scanEDGE / KdELECT
From the text: as §1, §2, §3, §4, §5, §6, §7, §8

[5] = target: T5, ACVR1B (ALK4) (Homo sapiens, UniProt P36896)
T5 construct: purchased DiscoverX (DiscoveRx) KINOMEscan scanEDGE / KdELECT
T5 sequence (P36896 24-505): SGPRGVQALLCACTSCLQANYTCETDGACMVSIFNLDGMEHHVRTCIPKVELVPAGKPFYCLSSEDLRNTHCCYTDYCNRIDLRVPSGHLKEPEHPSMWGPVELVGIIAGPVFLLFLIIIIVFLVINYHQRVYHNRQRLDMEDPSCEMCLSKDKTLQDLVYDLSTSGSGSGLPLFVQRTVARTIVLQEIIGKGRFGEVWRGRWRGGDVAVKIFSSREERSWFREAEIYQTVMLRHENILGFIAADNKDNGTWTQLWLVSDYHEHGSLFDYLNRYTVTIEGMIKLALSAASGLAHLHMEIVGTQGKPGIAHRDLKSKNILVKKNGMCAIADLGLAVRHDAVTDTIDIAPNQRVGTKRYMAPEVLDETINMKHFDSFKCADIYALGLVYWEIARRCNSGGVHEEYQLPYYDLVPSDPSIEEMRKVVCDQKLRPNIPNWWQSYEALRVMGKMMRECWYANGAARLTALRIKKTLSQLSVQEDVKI
From the text: as §1, §2, §3, §4, §5, §6, §7, §8

[6] = target: T6, PAK2 (Homo sapiens, UniProt Q13177)
T6 construct: purchased DiscoverX (DiscoveRx) KINOMEscan scanEDGE / KdELECT
From the text: as §1, §2, §3, §4, §5, §6, §7, §8

[7] = target: T7, KIT(V559D,T670I) (Homo sapiens, UniProt P10721, T670I/V559D)
T7 construct: purchased DiscoverX (DiscoveRx) KINOMEscan scanEDGE / KdELECT
From the text: as §1, §2, §3, §4, §5, §6, §7, §8

[8] = target: T8, PLK1 (Homo sapiens, UniProt P53350)
T8 construct: purchased DiscoverX (DiscoveRx) KINOMEscan scanEDGE / KdELECT
T8 sequence (P53350 whole entry): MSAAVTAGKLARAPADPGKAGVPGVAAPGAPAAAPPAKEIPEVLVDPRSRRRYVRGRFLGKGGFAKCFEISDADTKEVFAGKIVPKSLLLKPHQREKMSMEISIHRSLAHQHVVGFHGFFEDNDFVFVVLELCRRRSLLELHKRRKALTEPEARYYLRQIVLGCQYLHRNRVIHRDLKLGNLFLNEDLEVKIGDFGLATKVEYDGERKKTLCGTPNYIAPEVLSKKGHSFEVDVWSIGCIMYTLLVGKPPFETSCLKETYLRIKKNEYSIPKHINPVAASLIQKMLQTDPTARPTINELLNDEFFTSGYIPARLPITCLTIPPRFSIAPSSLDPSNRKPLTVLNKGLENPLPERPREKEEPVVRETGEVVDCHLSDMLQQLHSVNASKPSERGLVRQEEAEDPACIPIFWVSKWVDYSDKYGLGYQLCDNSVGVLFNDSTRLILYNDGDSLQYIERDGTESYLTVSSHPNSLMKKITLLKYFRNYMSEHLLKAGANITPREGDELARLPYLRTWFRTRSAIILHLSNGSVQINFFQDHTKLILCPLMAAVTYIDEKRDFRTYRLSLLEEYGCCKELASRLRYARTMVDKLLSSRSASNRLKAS
From the text: as §1, §2, §3, §4, §5, §6, §7, §8

[9] = target: T9, PIK3CG (Homo sapiens, UniProt P48736)
T9 construct: purchased DiscoverX (DiscoveRx) KINOMEscan scanEDGE / KdELECT
From the text: as §1, §2, §3, §4, §5, §6, §7, §8

[10] = target: T10, JNK2 (Homo sapiens, UniProt P45984)
T10 construct: purchased DiscoverX (DiscoveRx) KINOMEscan scanEDGE / KdELECT
T10 sequence (P45984 whole entry): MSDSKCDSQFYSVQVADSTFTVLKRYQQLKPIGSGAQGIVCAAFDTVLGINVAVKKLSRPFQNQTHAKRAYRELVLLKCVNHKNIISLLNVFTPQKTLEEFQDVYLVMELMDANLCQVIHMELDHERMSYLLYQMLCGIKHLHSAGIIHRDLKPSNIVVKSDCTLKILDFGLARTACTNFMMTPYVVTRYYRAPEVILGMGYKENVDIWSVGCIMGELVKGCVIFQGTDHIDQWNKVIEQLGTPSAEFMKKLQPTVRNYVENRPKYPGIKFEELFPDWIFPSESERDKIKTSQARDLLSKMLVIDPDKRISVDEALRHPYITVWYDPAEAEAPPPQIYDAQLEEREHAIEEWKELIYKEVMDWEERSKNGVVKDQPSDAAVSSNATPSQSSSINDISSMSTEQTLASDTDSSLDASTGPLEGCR
From the text: as §1, §2, §3, §4, §5, §6, §7, §8

[11] = target: T11, RSK2(Kin.Dom.1ENEterminal) (Homo sapiens, UniProt P51812)
T11 construct: RSK2(Kin.Dom.1ENEterminal); purchased DiscoverX (DiscoveRx) KINOMEscan scanEDGE / KdELECT
From the text: as §1, §2, §3, §4, §5, §6, §7, §8

[12] = target: T12, ACVR2B (Homo sapiens, UniProt Q13705)
T12 construct: purchased DiscoverX (DiscoveRx) KINOMEscan scanEDGE / KdELECT
From the text: as §1, §2, §3, §4, §5, §6, §7, §8

[13] = target: T13, CDK3 (Homo sapiens, UniProt Q00526)
T13 construct: purchased DiscoverX (DiscoveRx) KINOMEscan scanEDGE / KdELECT
From the text: as §1, §2, §3, §4, §5, §6, §7, §8

[14] = target: T14, CDK2 (Homo sapiens, UniProt P24941)
T14 construct: purchased DiscoverX (DiscoveRx) KINOMEscan scanEDGE / KdELECT
From the text: as §1, §2, §3, §4, §5, §6, §7, §8

[15] = target: T15, PIM3 (Homo sapiens, UniProt Q86V86)
T15 construct: purchased DiscoverX (DiscoveRx) KINOMEscan scanEDGE / KdELECT
From the text: as §1, §2, §3, §4, §5, §6, §7, §8

[16] = target: T16, PIM2 (Homo sapiens, UniProt Q9P1W9)
T16 construct: purchased DiscoverX (DiscoveRx) KINOMEscan scanEDGE / KdELECT
From the text: as §1, §2, §3, §4, §5, §6, §7, §8

[17] = target: T17, ROCK2 (Homo sapiens, UniProt O75116)
T17 construct: purchased DiscoverX (DiscoveRx) KINOMEscan scanEDGE / KdELECT
From the text: as §1, §2, §3, §4, §5, §6, §7, §8

[18] = target: T18, MEK2 (Homo sapiens, UniProt P36507)
T18 construct: purchased DiscoverX (DiscoveRx) KINOMEscan scanEDGE / KdELECT
From the text: as §1, §2, §3, §4, §5, §6, §7, §8

[19] = target: T19, ABL1EP (Homo sapiens, UniProt P00519)
T19 construct: purchased DiscoverX (DiscoveRx) KINOMEscan scanEDGE / KdELECT
From the text: as §1, §2, §3, §4, §5, §6, §7, §8

[20] = target: T20, BRAF (Homo sapiens, UniProt P15056)
T20 construct: purchased DiscoverX (DiscoveRx) KINOMEscan scanEDGE / KdELECT
From the text: as §1, §2, §3, §4, §5, §6, §7, §8

[21] = target: T21, VEGFR2 (Homo sapiens, UniProt P35968)
T21 construct: purchased DiscoverX (DiscoveRx) KINOMEscan scanEDGE / KdELECT
From the text: as §1, §2, §3, §4, §5, §6, §7, §8

[22] = target: T22, NEK6 (Homo sapiens, UniProt Q9HC98)
T22 construct: purchased DiscoverX (DiscoveRx) KINOMEscan scanEDGE / KdELECT
From the text: as §1, §2, §3, §4, §5, §6, §7, §8

[23] = target: T23, DYRK1B (Homo sapiens, UniProt Q9Y463)
T23 construct: purchased DiscoverX (DiscoveRx) KINOMEscan scanEDGE / KdELECT
From the text: as §1, §2, §3, §4, §5, §6, §7, §8

[24] = target: T24, ABL1(T315I)EP (Homo sapiens, UniProt P00519, T315I)
T24 construct: purchased DiscoverX (DiscoveRx) KINOMEscan scanEDGE / KdELECT
From the text: as §1, §2, §3, §4, §5, §6, §7, §8

[25] = target: T25, ABL1EnP (Homo sapiens, UniProt P00519)
T25 construct: purchased DiscoverX (DiscoveRx) KINOMEscan scanEDGE / KdELECT
From the text: as §1, §2, §3, §4, §5, §6, §7, §8

[26] = target: T26, RAF1 (Homo sapiens, UniProt P04049)
T26 construct: purchased DiscoverX
From the text: as §1, §2, §3, §4, §5, §6, §7, §8

[27] = target: T27, MEK1 (Homo sapiens, UniProt Q02750)
T27 construct: purchased DiscoverX (DiscoveRx) KINOMEscan scanEDGE / KdELECT
From the text: as §1, §2, §3, §4, §5, §6, §7, §8

[28] = target: T28, MARK3 (Homo sapiens, UniProt P27448)
T28 construct: purchased DiscoverX (DiscoveRx) KINOMEscan scanEDGE / KdELECT
From the text: as §1, §2, §3, §4, §5, §6, §7, §8

[29] = target: T29, INSR (Homo sapiens, UniProt P06213)
T29 construct: purchased DiscoverX (DiscoveRx) KINOMEscan scanEDGE / KdELECT
T29 sequence (P06213 28-1382): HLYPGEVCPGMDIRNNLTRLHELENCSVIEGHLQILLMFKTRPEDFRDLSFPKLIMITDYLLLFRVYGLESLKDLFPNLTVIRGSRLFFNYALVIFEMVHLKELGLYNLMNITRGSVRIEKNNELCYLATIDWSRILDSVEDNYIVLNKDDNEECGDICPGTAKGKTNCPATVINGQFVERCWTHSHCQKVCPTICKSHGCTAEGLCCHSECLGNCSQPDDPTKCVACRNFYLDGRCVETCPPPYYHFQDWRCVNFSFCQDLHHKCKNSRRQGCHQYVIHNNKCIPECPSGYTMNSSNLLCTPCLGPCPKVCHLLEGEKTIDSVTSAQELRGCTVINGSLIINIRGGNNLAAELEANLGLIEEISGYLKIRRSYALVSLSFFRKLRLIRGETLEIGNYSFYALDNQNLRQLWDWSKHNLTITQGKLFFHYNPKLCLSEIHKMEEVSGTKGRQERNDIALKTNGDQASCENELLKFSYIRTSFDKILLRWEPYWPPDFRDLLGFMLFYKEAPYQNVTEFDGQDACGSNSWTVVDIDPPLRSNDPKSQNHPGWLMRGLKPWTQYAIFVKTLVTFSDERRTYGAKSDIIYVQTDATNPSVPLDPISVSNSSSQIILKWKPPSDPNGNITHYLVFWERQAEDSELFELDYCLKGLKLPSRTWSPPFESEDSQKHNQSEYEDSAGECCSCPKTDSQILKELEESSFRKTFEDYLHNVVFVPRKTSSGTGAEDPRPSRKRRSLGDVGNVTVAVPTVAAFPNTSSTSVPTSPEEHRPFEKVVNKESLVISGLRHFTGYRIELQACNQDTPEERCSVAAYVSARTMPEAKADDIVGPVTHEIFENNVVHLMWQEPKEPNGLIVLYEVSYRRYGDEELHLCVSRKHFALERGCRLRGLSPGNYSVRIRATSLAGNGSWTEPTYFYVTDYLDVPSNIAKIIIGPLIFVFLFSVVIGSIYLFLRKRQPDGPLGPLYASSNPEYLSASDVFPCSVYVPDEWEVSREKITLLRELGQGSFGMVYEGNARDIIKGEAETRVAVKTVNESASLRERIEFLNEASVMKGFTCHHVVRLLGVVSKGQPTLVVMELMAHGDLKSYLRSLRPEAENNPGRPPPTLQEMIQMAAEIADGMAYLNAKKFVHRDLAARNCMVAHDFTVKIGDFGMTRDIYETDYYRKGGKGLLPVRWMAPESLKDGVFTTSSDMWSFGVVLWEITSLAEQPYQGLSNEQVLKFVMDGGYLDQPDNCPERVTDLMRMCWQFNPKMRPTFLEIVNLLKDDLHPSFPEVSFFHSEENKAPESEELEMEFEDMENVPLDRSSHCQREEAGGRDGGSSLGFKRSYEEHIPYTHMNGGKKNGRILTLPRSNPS
From the text: as §1, §2, §3, §4, §5, §6, §7, §8

[30] = target: T30, TSSK1B (Homo sapiens, UniProt Q9BXA7)
T30 construct: purchased DiscoverX (DiscoveRx) KINOMEscan scanEDGE / KdELECT
From the text: as §1, §2, §3, §4, §5, §6, §7, §8

[31] = target: T31, MLK1 (Homo sapiens, UniProt P80192)
T31 construct: purchased DiscoverX (DiscoveRx) KINOMEscan scanEDGE / KdELECT
From the text: as §1, §2, §3, §4, §5, §6, §7, §8

[32] = target: T32, FAK (Homo sapiens, UniProt Q05397)
T32 construct: purchased DiscoverX (DiscoveRx) KINOMEscan scanEDGE / KdELECT
From the text: as §1, §2, §3, §4, §5, §6, §7, §8

[33] = target: T33, MAPKAPK2 (Homo sapiens, UniProt P49137)
T33 construct: purchased DiscoverX (DiscoveRx) KINOMEscan scanEDGE / KdELECT
From the text: as §1, §2, §3, §4, §5, §6, §7, §8

[34] = target: T34, SRC (Homo sapiens, UniProt P12931)
T34 construct: purchased DiscoverX (DiscoveRx) KINOMEscan scanEDGE / KdELECT
From the text: as §1, §2, §3, §4, §5, §6, §7, §8

[35] = target: T35, AURKA (Homo sapiens, UniProt O14965)
T35 construct: purchased DiscoverX (DiscoveRx) KINOMEscan scanEDGE / KdELECT
From the text: as §1, §2, §3, §4, §5, §6, §7, §8

[36] = target: T36, GSK3B (Homo sapiens, UniProt P49841)
T36 construct: purchased DiscoverX (DiscoveRx) KINOMEscan scanEDGE / KdELECT
From the text: as §1, §2, §3, §4, §5, §6, §7, §8

[37] = target: T37, MET (Homo sapiens, UniProt P08581)
T37 construct: purchased DiscoverX (DiscoveRx) KINOMEscan scanEDGE / KdELECT
From the text: as §1, §2, §3, §4, §5, §6, §7, §8

[38] = target: T38, ABL1(E255K)EP (Homo sapiens, UniProt P00519, E255K)
T38 construct: purchased DiscoverX (DiscoveRx) KINOMEscan scanEDGE / KdELECT
From the text: as §1, §2, §3, §4, §5, §6, §7, §8

[39] = target: T39, ACVR2A (Homo sapiens, UniProt P27037)
T39 construct: purchased DiscoverX (DiscoveRx) KINOMEscan scanEDGE / KdELECT
From the text: as §1, §2, §3, §4, §5, §6, §7, §8

Compound | remaining binding at 1 µM [1] | remaining binding at 1 µM [2] | remaining binding at 1 µM [3] | remaining binding at 1 µM [4] | remaining binding at 1 µM [5] | remaining binding at 1 µM [6] | remaining binding at 1 µM [7] | remaining binding at 1 µM [8] | remaining binding at 1 µM [9] | remaining binding at 1 µM [10] | remaining binding at 1 µM [11] | remaining binding at 1 µM [12] | remaining binding at 1 µM [13] | remaining binding at 1 µM [14] | remaining binding at 1 µM [15] | remaining binding at 1 µM [16] | remaining binding at 1 µM [17] | remaining binding at 1 µM [18] | remaining binding at 1 µM [19] | remaining binding at 1 µM [20] | other results
O=c1c2cc(-c3ccnc4ccccc34)ccc2ncn1-c1ccc(N2CCOCC2)cc1 [compound 16, 3-(4-Morpholinophenyl)-6-(quinolin-4-yl)quinazolin-4(3H)-one] | 100% | 100% | 91% | 100% | 100% | 54% | 100% | 86% | 100% | 100% | 100% | 98% | 100% | 95% | 100% | 89% | 100% | 85% | 77% | 65% | remaining binding at 1 µM [21]: 95%; remaining binding at 1 µM [22]: 100%; remaining binding at 1 µM [23]: 90%; remaining binding at 1 µM [24]: 100%; remaining binding at 1 µM [25]: 76%; remaining binding at 1 µM [26]: 88%; remaining binding at 1 µM [27]: 89%; remaining binding at 1 µM [28]: 90%; remaining binding at 1 µM [29]: 100%; remaining binding at 1 µM [30]: 100%; remaining binding at 1 µM [31]: 97%; remaining binding at 1 µM [32]: 97%; remaining binding at 1 µM [33]: 96%; remaining binding at 1 µM [34]: 88%; remaining binding at 1 µM [35]: 100%; remaining binding at 1 µM [36]: 95%; remaining binding at 1 µM [37]: 80%; remaining binding at 1 µM [38]: 84%; remaining binding at 1 µM [39]: 100%
Cc1nc2ccc(-c3ccnc4ccccc34)c(C)c2c(=O)[nH]1 [compound 21, 2,5-Dimethyl-6-(quinolin-4-yl)quinazolin-4(3H)-one] | 100% | 98% | 95% | 97% | 18% | 77% | 98% | 75% | 98% | 91% | 97% | 67% | 94% | 100% | 98% | 96% | 100% | 79% | 97% | 17% | remaining binding at 1 µM [21]: 99%; remaining binding at 1 µM [22]: 100%; remaining binding at 1 µM [23]: 92%; remaining binding at 1 µM [24]: 97%; remaining binding at 1 µM [25]: 91%; remaining binding at 1 µM [26]: 25%; remaining binding at 1 µM [27]: 85%; remaining binding at 1 µM [28]: 83%; remaining binding at 1 µM [29]: 93%; remaining binding at 1 µM [30]: 100%; remaining binding at 1 µM [31]: 91%; remaining binding at 1 µM [32]: 98%; remaining binding at 1 µM [33]: 100%; remaining binding at 1 µM [34]: 98%; remaining binding at 1 µM [35]: 100%; remaining binding at 1 µM [36]: 97%; remaining binding at 1 µM [37]: 88%; remaining binding at 1 µM [38]: 95%; remaining binding at 1 µM [39]: 83%
